In ChEMBL document CHEMBL1770146, “Structure-activity relationship studies of novel 3-oxazolidinedione-6-naphthyl-2-pyridinones as potent and orally bioavailable EP3 receptor antagonists” (Bioorg Med Chem Lett, 2011):
pKi: −log10 of the molar value. Activity calls are given as the source filed them. No cut-off for these calls is given here.

How the values were obtained:
[1] = molecular target: T1, Prostaglandin E2 receptor EP3 subtype (Homo sapiens, UniProt P43115); assay: Antagonist activity at human EP3 receptor expressed in CHO cells assessed as inhibition of PGE2-induced increase in intracellular calcium concentration after 1 hr by FLIPR assay; format: functional, cell-based
T1 sequence (P43115 whole entry): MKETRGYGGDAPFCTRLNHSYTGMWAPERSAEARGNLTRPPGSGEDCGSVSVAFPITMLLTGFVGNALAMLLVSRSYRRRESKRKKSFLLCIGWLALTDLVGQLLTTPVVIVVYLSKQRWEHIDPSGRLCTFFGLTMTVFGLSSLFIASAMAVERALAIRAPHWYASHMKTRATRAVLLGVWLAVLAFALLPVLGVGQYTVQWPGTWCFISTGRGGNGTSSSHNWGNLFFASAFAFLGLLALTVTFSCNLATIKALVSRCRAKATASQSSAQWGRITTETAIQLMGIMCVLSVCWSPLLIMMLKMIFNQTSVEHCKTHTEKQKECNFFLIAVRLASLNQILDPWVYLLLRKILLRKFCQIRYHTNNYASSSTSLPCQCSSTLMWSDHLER

[2] = Clearance in Sprague-Dawley rat at 1 mg/kg, iv and 2 mg/kg, po; format: ADME, organism-based; conditions: in vivo
[3] = Oral bioavailability in Sprague-Dawley rat at 2 mg/kg; format: ADME, organism-based; conditions: in vivo
[4] = Half life in Sprague-Dawley rat at 1 mg/kg, iv and 2 mg/kg, po; format: ADME, organism-based; conditions: in vivo
Rattus norvegicus = assay: Dose normalized AUC in Sprague-Dawley rat at 2 mg/kg, po; format: ADME, organism-based; parameters: dose 2 mg/kg, route oral; conditions: in vivo
Canis lupus familiaris = species on record: Canis lupus familiaris; assay: Antagonist activity at dog EP3 receptor; format: functional
[5] = molecular target: T2, Prostaglandin E2 receptor EP3 subtype (Rattus norvegicus) (UniProt P34980); assay: Antagonist activity at rat EP3 receptor; format: functional
T2 sequence (whole entry): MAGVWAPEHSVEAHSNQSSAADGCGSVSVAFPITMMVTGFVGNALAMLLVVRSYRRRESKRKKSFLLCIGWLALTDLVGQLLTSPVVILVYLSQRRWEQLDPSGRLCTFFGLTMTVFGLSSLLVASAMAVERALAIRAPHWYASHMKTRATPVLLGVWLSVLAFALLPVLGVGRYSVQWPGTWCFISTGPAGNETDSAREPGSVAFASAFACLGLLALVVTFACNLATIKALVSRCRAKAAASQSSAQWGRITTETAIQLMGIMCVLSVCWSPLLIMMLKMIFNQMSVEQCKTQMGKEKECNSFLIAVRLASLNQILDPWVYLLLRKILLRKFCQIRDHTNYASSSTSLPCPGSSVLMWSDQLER

Row | pKi [1] | Structure (SMILES) | other results
1 | 6.10 | CC(C)C1(c2c[nH]c(-c3ccc4ccccc4c3)cc2=O)OC(=O)NC1=O (centres undefined) | 
2 | 7.70 | CC(C)[C@]1(c2ccc(-c3ccc4ccccc4c3)[nH]c2=O)OC(=O)NC1=O | 
3 | 5.80 | CC(C)N1C(=O)OC(C)(c2ccc(-c3ccc4ccccc4c3)[nH]c2=O)C1=O (centres undefined) | 
4 |  | CC(C)C1(c2ccc(-c3ccc4ccccc4c3)[nH]c2=O)OC(O)=NC1=O (centres undefined) | clearance [2]: 5.1 mL/min/kg; bioavailability [3]: 100%; half-life [4]: 210 min; AUC (Rattus norvegicus): 4.4 µg·h/mL
5 | 7.80 | O=C1NC(=O)C(Cc2ccccc2)(c2ccc(-c3ccc4ccccc4c3)[nH]c2=O)O1 (centres undefined) | 
6 | 6.50 | CC1(c2ccc(-c3ccc4ccccc4c3)[nH]c2=O)NC(=O)NC1=O (centres undefined) | 
7 | 6.30 | CN1C(=O)OC(C)(c2ccc(-c3ccc4ccccc4c3)[nH]c2=O)C1=O (centres undefined) | 
8 | 7.50 | O=C1NC(=O)C(c2ccccc2)(c2ccc(-c3ccc4ccccc4c3)[nH]c2=O)O1 (centres undefined) | 
9 | 8.10 | O=C1NC(=O)C(c2ccc(-c3ccc4ccccc4c3)[nH]c2=O)(C2CCCC2)O1 (centres undefined) | 
10 | 8.10 | O=C1NC(=O)C(c2ccc(-c3ccc4ccccc4c3)[nH]c2=O)(C2CCCCC2)O1 (centres undefined) | 
11 | 5.60 | CC(C)C1(c2cc(-c3ccccc3)c(-c3ccc4ccccc4c3)[nH]c2=O)OC(=O)NC1=O (centres undefined) | 
12 |  | CC(C)C1(c2ccc(-c3ccc4ccccc4c3)[nH]c2=O)OC(=O)NC1=O (centres undefined) | Activity (Canis lupus familiaris): Active; Activity [5]: Active
13 | 5.90 | CC1(c2ccc(-c3ccc4ccccc4c3)cc2O)OC(=O)NC1=O (centres undefined) | 
14 | 7.40 | CC(C)C1(c2cc(Br)c(-c3ccc4ccccc4c3)[nH]c2=O)OC(=O)NC1=O (centres undefined) | 
15 | 8.20 | Cc1cc(C2(C(C)C)OC(=O)NC2=O)c(=O)[nH]c1-c1ccc2ccccc2c1 (centres undefined) | clearance [2]: 1.4 mL/min/kg; bioavailability [3]: 100%; half-life [4]: 396 min; AUC (Rattus norvegicus): 13.5 µg·h/mL
16 | 5.50 | COc1cc(-c2ccc3ccccc3c2)ccc1C1(C)OC(=O)NC1=O (centres undefined) | 
17 | 7.10 | CC1(c2ccc(-c3ccc4ccccc4c3)[nH]c2=O)CNC(=O)O1 (centres undefined) | 
18 | 7.70 | CC1(c2ccc(-c3ccc4ccccc4c3)[nH]c2=O)OC(=O)NC1=O (centres undefined) | 
19 | 6.20 | CC(C)C1(c2cc(C(F)(F)F)c(-c3ccc4ccccc4c3)[nH]c2=O)OC(=O)NC1=O (centres undefined) | 
20 | < 4.60 | Cn1c(-c2ccc3ccccc3c2)ccc(C2(C)OC(=O)NC2=O)c1=O (centres undefined) | 
21 | 8.10 | CC(C)[C@@]1(c2ccc(-c3ccc4ccccc4c3)[nH]c2=O)OC(=O)NC1=O | 
22 | 6.90 | O=C1NC(=O)C(c2ccc(-c3ccc4ccccc4c3)[nH]c2=O)(C(F)(F)F)O1 (centres undefined) | 
23 | 7.30 | O=C1NC(=O)C(c2ccc(-c3ccc4ccccc4c3)[nH]c2=O)(C2CC2)O1 (centres undefined) | 
24 | < 4.60 | CC(C)C1(c2ccc(-c3ccc4ccccc4c3)nc2)OC(=O)NC1=O (centres undefined) | 
25 | 7.40 | CC1(c2ccc(-c3ccc4ccccc4c3)[nH]c2=O)CNC(=O)N1 (centres undefined) | 
26 | 6.70 | O=C1NC(=O)C(c2ccc(-c3ccc4ccccc4c3)[nH]c2=O)(C2CCOCC2)O1 (centres undefined) | 
27 | 7.30 | CC(C)C1(c2cc(Cl)c(-c3ccc4ccccc4c3)[nH]c2=O)OC(=O)NC1=O (centres undefined) | clearance [2]: 1.2 mL/min/kg; bioavailability [3]: 86%; half-life [4]: 318 min; AUC (Rattus norvegicus): 12.9 µg·h/mL
